The text below walks through data of patent US9890202B2, “Peptides based on the transmembrane domain of a toll-like receptor (TLR) for treatment of TLR-mediated diseases” (Yeda Research and Development Co. Ltd., priority 2010, dated 2018).

Ends that are not written are not given here.

Series [1] has as its system mTLR1 TM peptides (fluorescein labeled donors). Nature of the series: FRET between fluorescein and rhodamine labeled TM peptides in PC:Cholesterol LUVs. The following applies: rhodamine conjugated acceptor added to fluorescein TLR1 TM donors. Type of series: binding, mouse. On the procedure:
Large unilamellar vesicles (LUVs) composed of phosphatidylcholine (PC) and cholesterol (10:1, w/w), were prepared using the extrusion method as described previously (Cohen et al, 2008). The fluorescence experiments were performed with pairs of peptides using fluorescein labeled peptides as donors and rhodamine labeled peptides as acceptors. Fluorescence spectra were obtained at room temperature, with excitation set at 494 nm (10 nm slit) and emission scan at 500-600 nm (10 nm slits), by a Cary eclipse fluorescence spectrophotometer (Varian Inc., Palo Alto, Calif.). In a typical experiment, a fluorescein labeled peptide was first added from a stock solution in DMSO (final concentration of 0.1 μM peptide and 0.25% (v/v) DMSO) to a solution containing PC:Cholesterol LUVs (100 μM) in HEPES buffer. This was followed by the successive addition of rhodamine labeled peptides to a final concentration ranging from 0.025 to 0.4 μM. Fluorescence spectra were obtained before and after the addition of the rhodamine labeled peptides. Fluorescence values were corrected by subtracting the changes in emission obtained by adding HEPES only. […]
Fluorescence Resonance Energy Transfer (FRET) analysis was used for exploring the interactions of the synthetic TM peptides within large unilameler vesicles (LUVs). […]

A short description of series [2]: XTT cytotoxicity assay. The following applies: mouse, RAW264.7 murine macrophages, RAW264.7 cells, 2 hours incubation, 0.78-100 μM, read-out: LC50 (Lethal Concentration at which 50% of cells die). Type of series: cell-based. On the procedure: 1×10^4 cells (RAW264.7 murine macrophages, ATCC® Number-TIB-71) per well were grown over night on a 96-well plate. The following day, the media were replaced with 90 μl fresh culture medium and 10 μl solution buffer containing different concentrations of the different peptides mTLR2 TM N′-CtoA (SEQ ID NO:88), mTLR2 TM C′-CtoA (SEQ ID NO:86), mTLR1 TM N′ (SEQ ID NO:77) and mTLR1 TM C′-CtoA (SEQ ID NO:83). Peptide concentrations range from 0.78-100 μM. The cells were then incubated for 2 hours before adding to each well 50 μl of 2,3-bis[2-methoxy-4-nitro-5-sulfophenyl]-2H-tetrazolium-5-carboxanilide inner salt (XTT) reaction solution (Biological Industries). Viability was determined as described previously (Papo et al., 2004 and Papo et al., 2006). The LC50 (the concentration at which 50% of the cells die) for each peptide was obtained from the dose-dependent cell viability curves.
Background: Tetrazolium dyes change colour on reduction, which living cells bring about.

Series [3] deals with TLR2. Nature of the series: NFkB luciferase reporter in PC3 cells activated with LTA. Type of series: cell-based, human. The following applies: peptide 20 μM, LTA 50 μg/ml. On the procedure: (§1) Cells were transfected with a luciferase plasmid under the transcriptional control of NFkB. Upon activation, NFkB trans-locates to the nucleus and induces the expression of luciferase. Cells were activated in the presence of LTA (50 μg/ml) or LPS (1 μg/ml) for 24 hours and were incubated for 2 hours with the hTLR2 TM C′ peptide (SEQ ID NO:83) ([…]) prior to the addition of the activator and washed twice with PBS. Detection of Luc expression was performed by the Steady-Glo assay kit.
(§2) The NFkB responsive element has been widely researched and is known to serve as a specific indication for the presence of the NFkB molecule inside the nucleus. Such a translocation occurs upon activation of the signaling cascade of TLRs, which leads to targeted transcription. This DNA element was introduced into a Luciferase expressing plasmid upstream to the gene thus generating a reporter plasmid for the presence of NFkB in the nucleus. Cells were transfected with the plasmid and 24 hours later were treated with LPS/LTA to induce the signaling cascade through TLR4 and TLR2, respectively. To validate activation, the levels of Luc expression were evaluated using the Steady-Glo kit (Promega) according to manufactures instructions.

The subject of series [4] is TLR4. The experiment in a line: NFkB luciferase reporter in PC3 cells activated with LPS. Type of series: cell-based, human. The following applies: peptide 20 μM, LPS 1 μg/ml. On the procedure: as §1, §2
(In general: In a reporter assay the amount or activity of a reporter protein is the signal.)

For series [5], the system named is PC3 cells. The experiment in a line: mRNA expression of TGFβ and VEGF in cells activated with LPS/LTA. Type of series: cell-based, human. The following applies: peptide 20 μM, LPS/LTA stimulation. On the procedure:
FIGS. 13A-B show mRNA expression of TGFβ (B) and VEGF (A) in LNCaP and PC3 cells in the absence or presence of LPS/LTA and the peptide hTLR2 TM C′ (SEQ ID NO:83) at a concentration of 20 μM.
One of the main features of metastatic cells is their ability to influence their environment due to the secretion of various cytokines. Two of the most influential cytokines are VEGF which induces the formation of blood vessels, and TGFβ which e.g. induces tolerance of immune cells and inhibits apoptosis. We therefore determined the expression of the mRNA of these cytokines in the cells upon their activation with LPS and LTA and the effect of the peptide on the activation. […] These findings lead us to the hypothesis that the presence of the TLRs on PC3 cells contribute to the severity (aggressiveness) of the cancer and its ability to form metastases. Thus, the TLR TM peptides of the invention can be used as new diagnostic biomarkers, which can indicate the rate of growth and the ability of the cells to form metastases.

Series [6] has as its system LNCaP. The experiment in a line: Toxicity to LNCaP cell line. The class given is cell-based, human. The following applies: up to 100 μM (maximal concentration tested). On the procedure: (§3) We synthesized peptides corresponding to either the N-terminus or C-terminus domains of the TM domains of human TLR1, 2 and 5. Each TM domain was divided into two overlapping sequences (Table 2). Activity and toxicity experiments were performed on a peptide corresponding to the C-terminus domain of the TM domain of human TLR2, including the adjacent 5 amino acids from the putative intracellular domain (SEQ ID NO:83, hTLR2-C in Table 2 below, extended with two lysine residues at each of its termini to increase solubility). The peptide was not toxic to either PC3 or LNCaP cell lines at a concentration of up to 100 μM (the maximal concentration tested, data not shown).

The test system of series [7] is PC3. The experiment in a line: Toxicity to PC3 cell line. Type of series: cell-based, human. The following applies: up to 100 μM (maximal concentration tested). On the procedure:
as §3

Series [8] has as its system TLR2. The experiment in a line: Murine model of acute septic shock caused by LTA (TLR2 hyperactivation). Type of series: in vivo, mice. The following applies: during the whole experiment. On the procedure: To examine the effect of TLR TM peptides on acute septic shock driven by TLR2 hyperactivation we have used a murine model as previously described (Meng et al., 2004). Briefly, 12 weeks old C57 Black female mice (supplied by Harlan) were treated with 100 μg of LTA injected IP in a saline solution (pH 6.5) containing 200 μg/ml of D-galactoseamine (Calbiochem). Treated mice received two injections of peptide at doses of 1, 5 and 10 mg/kg. First injection was given at the time of LTA injection, second injection was given 2 hrs (1 mg/kg) or 12 hrs (5 and 10 mg/kg) later. Animals were monitored for survival for 96 hours after LTA injection. Peptides used for in-vivo experiments were treated twice with 20% acetic acid in order to replace the trifluoroacetate anion added during HPLC purification. For all groups n=8.
In order to test the activity of our peptides in-vivo, we have used a murine model for acute septic shock caused by hyperactivation of TLR2. Mice were injected i.p. with 100 μg of LTA and then treated with mTLR2 TM C′-CtoA peptide (SEQ ID NO:86) in different regimes (see materials and methods section (xi)) or with saline only.

In the case of “GLRILLLKV-NH2 (not fully specified; printed as GLRILLLKV-NH2) [Cp, the core TM peptide of TCRα, negative control]”, the “fluorescence signal decrease (FRET), negative control” value in series [1] is “no significant fluorescence signal decrease”.

On to “KKALVSGVAAALLLLILLVGKK-NH2 [mTLR2 N′ TM (C to A)]”, for which the CC50 at 2 h in series [2] is > 100 µM.

For the substance “KKLAVTGAFLALYFDLPWKK-NH2 [mTLR1 C′ TM (C to A)]”, in series [2], the CC50 at 2 h worked out at 50 µM.

For the substance “KKLAVTGAFLASYFDLPWKK-NH2 [mTLR1 C′ TM (C to A + L605S), kkLAVTGAFLASYFDLPWkk]”, the CC50 at 2 h in series [2] was > 100 µM.

Take “KKLAVTGAFLCLYFDLPWKK-NH2 [mTLR1 C′ TM, kkLAVTGAFLCLYFDLPWkk]”: the CC50 at 2 h in series [2] is > 100 µM.

As for KKLILLTGVLCHRFHGLWKK-NH2 [hTLR2 TM C′], the “inhibition of Luc expression” value in series [3] stood at 40%. Also, the “inhibition of activation (Luc expression)” value in series [4] was “could not inhibit”. Also, the “levels of expression of TGFβ and VEGF mRNA” value in series [5] is reported as “drop in the levels of expression”. The toxicity result in series [6] and in series [7] was “not toxic” throughout.

Regarding “KKLILLVGALAHHFHGLWKK-NH2 [mTLR2 C′ TM (C to A)]”, the CC50 at 2 h in series [2] was determined as 50 µM. For the same substance, the “adverse effects in treated mice” value in series [8] is listed as “no noticeable adverse effects”.

“KKLILLVGALCHHFHGLWKK-NH2 [mTLR2 C′ TM, kkLILLVGALCHHFHGLWkk]”: in series [2], the CC50 at 2 h is 50 µM.

In the case of “KKLLTVTIGATMLVLAVTGAKK-NH2 [mTLR1 N′ TM]”, the CC50 at 2 h in series [2] is > 100 µM.
